Measurements as given in publication PMC6376162, “HEXIM1 Peptide Exhibits Antimicrobial Activity Against Antibiotic Resistant Bacteria Through Guidance of Cell Penetrating Peptide” (Frontiers in Microbiology, 2019).
Converted amounts (≈) assume the structure as drawn. Residues, ends and D or L forms follow the SMILES beside them.

Assays:
[1] = test system: P. aeruginosa 544; type: cell-based, Pseudomonas aeruginosa; conditions: 544, 20 h
Procedure: (§1) Bacterial strains were either purchased from American Type Culture Collection (ATCC, United States) or provided by National University Hospital, Singapore. Prior to assays, all bacteria, except for Enterococcus faecalis, were grown overnight to stationary phase at 37°C in Luria Bertani (LB) broth (Novagen, Germany). The overnight cultures were 10-fold diluted in fresh cation-adjusted Mueller Hinton II broth (MHBII) (Becton Dickinson, United States) and grown for additional few hours at 37°C to obtain mid-log phase culture. E. faecalis strains were grown in M17 broth (Becton Dickenson, United States) for both overnight and mid-log phase culturing. Human keratinocyte cell line, HaCaT, was purchased from Creative Bioarray (United States) and cultured in Dulbecco’s Modified Eagle’s medium with 4.5 g/L glucose, 2 mM L-glutamine, and 10% fetal bovine serum.
(§2) Minimum inhibition concentrations (MICs) were determined by using broth microdilution method in a 96-well microtiter plate according to guidelines of the Clinical and Laboratory Standards Institute ([CLSI, 2012]). Briefly, mid-log phase cultures were diluted with MHBII and added to wells containing serially diluted peptides to give final cell concentration of 5 × 10^5 cells ml^−1. Peptides were prepared in twofold serial dilution series to give a final concentration range from 2 to 128 μM. Cecropin P1 (CECP1) and Cap11-1-18m^2 (CapM2) treated cells were used as positive controls, while untreated cells were used as a negative control.
(§3) To further assess the potency of peptides, wells with no visible growth from MIC tests were subsequently plated on LB agar plates and incubated overnight at 37°C. […] Both MIC and MBC assays were conducted on three to five separate occasions and if results were within one doubling dilutions of each other, the highest reading was recorded for analysis.

[2] = test system: S. aureus 43300; type: cell-based, Staphylococcus aureus; conditions: 43300, 20 h
Procedure: as §1, §2, §3

[3] = test system: E. faecalis VRE; type: cell-based, Enterococcus faecalis; conditions: 20 h
Procedure: as §1, §2, §3

[4] = test system: Pseudomonas aeruginosa 27853; type: cell-based; conditions: 27853, 20 h
Procedure: as §1, §2, §3

[5] = test system: Enterococcus faecalis SEN; type: cell-based; conditions: 20 h
Procedure: as §1, §2, §3

[6] = test system: Escherichia coli 25922; type: cell-based; conditions: 25922, 20 h
Procedure: as §1, §2, §3

[7] = test system: Escherichia coli BAA2523; type: cell-based; conditions: BAA2523, 20 h
Procedure: as §1, §2, §3

[8] = test system: panel of antibiotic sensitive and resistant bacteria; type: cell-based; conditions: 20 h
Procedure: as §1, §2, §3

[9] = test system: Staphylococcus aureus 29213; type: cell-based; conditions: 29213, 20 h
Procedure: as §1, §2, §3

[10] = test system: mammalian cells; set-up: method as in Neo et al., 2016; conditions: cited from earlier work
[11] = test system: HaCaT human keratinocyte cell line; assay: Viability assay for mammalian cells (CellTiter-Glo); type: cell-based; conditions: overnight; for cytotoxicity against HaCat cells: 30 μM; for toxicity against HaCaT cells at the highest concentration: 100 μM
Procedure: as §1
HaCat cells (1 × 10^5 cells mL^−1) were seeded in a 96-well clear-bottomed white plate (Corning) in Dulbecco’s Modified Eagle’s medium with 4.5 g/L glucose, 2 mM L-glutamine, and 10% fetal bovine serum and incubated overnight at 37°C. On the following day, cells were treated with the indicated peptides at serial-diluted concentrations and incubated overnight. CellTiter-Glo reagent (Promega) was utilized to determine the cell viability based on the manufacturer’s instructions.

Compound | MBC [1] [µM] | MIC [2] [µM] | MBC [3] [µM] | MIC [3] [µM] | MBC [4] [µM] | MIC [4] [µM] | MBC [5] [µM] | MIC [5] [µM] | MBC [6] [µM] | MIC [6] [µM] | MBC [7] [µM] | MIC [7] [µM] | MBC [9] [µM] | MIC [9] [µM] | MIC [1] [µM] | MBC [2] [µM] | cytotoxicity against HaCat cells [11] | toxicity against HaCaT cells at the highest concentration [11] | other results
CC(C)C[C@H](NC(=O)[C@@H](N)CCC(N)=O)C(=O)NCC(=O)N[C@@H](CCCNC(=N)N)C(=O)N[C@@H](CCCNC(=N)N)C(=O)N[C@@H](CCCNC(=N)N)C(=O)N[C@@H](Cc1c[nH]cn1)C(=O)N[C@@H](CCCNC(=N)N)C(=O)N[C@@H](CCCNC(=N)N)C(=O)N[C@@H](CCCNC(=N)N)C(=O)N1CCC[C@H]1C(=O)N[C@@H](CO)C(=O)N[C@@H](CCCNC(=N)N)C(=O)N[C@@H](CCCNC(=N)N)C(=O)N[C@@H](CCCNC(=N)N)C(=O)N[C@@H](CCCNC(=N)N)C(=O)N[C@@H](Cc1c[nH]cn1)C(=O)N[C@@H](Cc1c[nH]c2ccccc12)C(=O)O [BR-RRR12] (H-QLGRRRHRRRPSRRRRHW-OH) | >128 | 16 (≈ 40.4 µg/mL) | >128 | 16 (≈ 40.4 µg/mL) | >128 | >128 | >128 | 32 (≈ 80.7 µg/mL) | 64 (≈ 161 µg/mL) | 64 (≈ 161 µg/mL) | >128 | >128 | >128 | 32 (≈ 80.7 µg/mL) | – | – | – | – | MICs (range over inhibited strains) [8]: 16 to 64 µM
CC(C)C[C@H](NC(=O)[C@@H](N)CCC(N)=O)C(=O)NCC(=O)N[C@@H](CCCCN)C(=O)N[C@@H](CCCCN)C(=O)N[C@@H](CCCCN)C(=O)N[C@@H](Cc1c[nH]cn1)C(=O)N[C@@H](CCCNC(=N)N)C(=O)N[C@@H](CCCNC(=N)N)C(=O)N[C@@H](CCCNC(=N)N)C(=O)N1CCC[C@H]1C(=O)N[C@@H](CO)C(=O)N[C@@H](CCCCN)C(=O)N[C@@H](CCCCN)C(=O)N[C@@H](CCCCN)C(=O)N[C@@H](CCCNC(=N)N)C(=O)N[C@@H](Cc1c[nH]cn1)C(=O)N[C@@H](Cc1c[nH]c2ccccc12)C(=O)O [BR] (H-QLGKKKHRRRPSKKKRHW-OH) | >128 | – | >128 | >128 | >128 | >128 | >128 | >128 | >128 | >128 | >128 | >128 | >128 | 128 (≈ 301 µg/mL) | >128 | >128 | – | – | cytotoxic effects on mammalian cells [10]: failed to cause any detectable cytotoxic effects
CC[C@H](C)[C@H](NC(=O)CNC(=O)[C@H](CCC(=O)O)NC(=O)[C@H](CO)NC(=O)[C@@H](NC(=O)[C@H](CCCNC(=N)N)NC(=O)[C@H](CCCCN)NC(=O)[C@H](CCCCN)NC(=O)[C@H](C)NC(=O)[C@H](CO)NC(=O)[C@H](CC(N)=O)NC(=O)[C@H](CCC(=O)O)NC(=O)[C@H](CC(C)C)NC(=O)[C@H](CCCCN)NC(=O)[C@H](CCCCN)NC(=O)[C@H](C)NC(=O)[C@@H](NC(=O)[C@H](CCCCN)NC(=O)[C@H](CO)NC(=O)[C@H](CC(C)C)NC(=O)[C@H](Cc1c[nH]c2ccccc12)NC(=O)[C@@H](N)CO)[C@@H](C)O)[C@@H](C)CC)C(=O)N[C@@H](C)C(=O)N[C@H](C(=O)N[C@@H](C)C(=O)N[C@H](C(=O)N[C@@H](CCC(N)=O)C(=O)NCC(=O)NCC(=O)N1CCC[C@H]1C(=O)N[C@@H](CCCNC(=N)N)C(=O)O)[C@@H](C)CC)[C@@H](C)CC [CECP1, Cecropin P1, reference compound] (H-SWLSKTAKKLENSAKKRISEGIAIAIQGGPR-OH) | 32 (≈ 107 µg/mL) | >128 | >128 | >128 | 32 (≈ 107 µg/mL) | 16 (≈ 53.4 µg/mL) | >128 | >128 | 4 (≈ 13.4 µg/mL) | 4 (≈ 13.4 µg/mL) | 64 (≈ 214 µg/mL) | 64 (≈ 214 µg/mL) | >128 | >128 | 16 (≈ 53.4 µg/mL) | >128 | – | – | –
CC[C@H](C)[C@H](NC(=O)[C@H](CC(C)C)NC(=O)[C@H](CCCCN)NC(=O)[C@H](CC(C)C)NC(=O)[C@H](CC(C)C)NC(=O)[C@H](CCCCN)NC(=O)[C@H](CCCNC(=N)N)NC(=O)[C@H](Cc1ccccc1)NC(=O)[C@H](CC(C)C)NC(=O)[C@H](CCCCN)NC(=O)[C@H](CCCNC(=N)N)NC(=O)[C@H](CC(C)C)NC(=O)[C@@H](N)CCCCN)C(=O)N[C@@H](CCCNC(=N)N)C(=O)N[C@@H](CCCCN)C(=O)N[C@@H](CC(C)C)C(=O)N[C@@H](CC(C)C)C(=O)N[C@@H](CCCNC(=N)N)C(=O)O [CapM2, Cap11-1-18m^2, reference compound] (H-KLRKLFRKLLKLIRKLLR-OH) | 32 (≈ 74.8 µg/mL) | 16 (≈ 37.4 µg/mL) | 16 (≈ 37.4 µg/mL) | 16 (≈ 37.4 µg/mL) | 32 (≈ 74.8 µg/mL) | 16 (≈ 37.4 µg/mL) | 16 (≈ 37.4 µg/mL) | 16 (≈ 37.4 µg/mL) | 32 (≈ 74.8 µg/mL) | 16 (≈ 37.4 µg/mL) | 64 (≈ 150 µg/mL) | 32 (≈ 74.8 µg/mL) | 32 (≈ 74.8 µg/mL) | 16 (≈ 37.4 µg/mL) | 16 (≈ 37.4 µg/mL) | 16 (≈ 37.4 µg/mL) | – | – | –
CC[C@H](C)[C@H](NC(=O)[C@H](CCCCN)NC(=O)[C@@H](NC(=O)[C@H](CCC(N)=O)NC(=O)[C@@H](N)CCCNC(=N)N)[C@@H](C)CC)C(=O)N[C@@H](Cc1c[nH]c2ccccc12)C(=O)N[C@@H](Cc1ccccc1)C(=O)N[C@@H](CCC(N)=O)C(=O)N[C@@H](CC(N)=O)C(=O)N[C@@H](CCCNC(=N)N)C(=O)N[C@@H](CCCNC(=N)N)C(=O)N[C@@H](Cc1c[nH]c2ccccc12)C(=O)NCC(=O)NCC(=O)N[C@@H](CCC(N)=O)C(=O)N[C@@H](CC(C)C)C(=O)NCC(=O)N[C@@H](CCCCN)C(=O)N[C@@H](CCCCN)C(=O)N[C@@H](CCCCN)C(=O)N[C@@H](Cc1c[nH]cn1)C(=O)N[C@@H](CCCNC(=N)N)C(=O)N[C@@H](CCCNC(=N)N)C(=O)N[C@@H](CCCNC(=N)N)C(=O)N1CCC[C@H]1C(=O)N[C@@H](CO)C(=O)N[C@@H](CCCCN)C(=O)N[C@@H](CCCCN)C(=O)N[C@@H](CCCCN)C(=O)N[C@@H](CCCNC(=N)N)C(=O)N[C@@H](Cc1c[nH]cn1)C(=O)N[C@@H](Cc1c[nH]c2ccccc12)C(=O)O [Pen-BR] (H-RQIKIWFQNRRWGGQLGKKKHRRRPSKKKRHW-OH) | – | – | – | – | – | – | – | – | – | – | – | – | – | – | – | – | little or no cytotoxicity | toxic activity | effect on HaCaT cells under lower concentrations ([11]; below 100 μM (10, 30, 50 μM)): did not cause any significant effects
CC[C@H](C)[C@H](NC(=O)[C@H](CCCCN)NC(=O)[C@@H](NC(=O)[C@H](CCC(N)=O)NC(=O)[C@@H](N)CCCNC(=N)N)[C@@H](C)CC)C(=O)N[C@@H](Cc1c[nH]c2ccccc12)C(=O)N[C@@H](Cc1ccccc1)C(=O)N[C@@H](CCC(N)=O)C(=O)N[C@@H](CC(N)=O)C(=O)N[C@@H](CCCNC(=N)N)C(=O)N[C@@H](CCCNC(=N)N)C(=O)N[C@@H](Cc1c[nH]c2ccccc12)C(=O)NCC(=O)NCC(=O)N[C@@H](CCC(N)=O)C(=O)N[C@@H](CC(C)C)C(=O)NCC(=O)N[C@@H](CCCNC(=N)N)C(=O)N[C@@H](CCCNC(=N)N)C(=O)N[C@@H](CCCNC(=N)N)C(=O)N[C@@H](Cc1c[nH]cn1)C(=O)N[C@@H](CCCNC(=N)N)C(=O)N[C@@H](CCCNC(=N)N)C(=O)N[C@@H](CCCNC(=N)N)C(=O)N1CCC[C@H]1C(=O)N[C@@H](CO)C(=O)N[C@@H](CCCNC(=N)N)C(=O)N[C@@H](CCCNC(=N)N)C(=O)N[C@@H](CCCNC(=N)N)C(=O)N[C@@H](CCCNC(=N)N)C(=O)N[C@@H](Cc1c[nH]cn1)C(=O)N[C@@H](Cc1c[nH]c2ccccc12)C(=O)O [Pen-RRR] (H-RQIKIWFQNRRWGGQLGRRRHRRRPSRRRRHW-OH) | – | – | – | – | – | – | – | – | – | – | – | – | – | – | – | – | little or no cytotoxicity | toxic activity | –
